In experiment [1] the target is α-amylase enzyme. Briefly: In vitro inhibition of α-amylase assay. The class given is biochemical. The settings on record: six concentrations 5-40 µg/mL, non-linear regression; read-out: IC50 against α-amylase enzyme (converted). The procedure: - inhibition in-vitro of α-Amylase assay:
The α-amylase activity of the compounds were determined using a method in which 250 μL of each compound, or Metformin .HCl, dissolved in ethanol to obtain different concentrations (5, 10, 15, 20,30 and 40 μg/mL ), was mixed with 500 μL of α-amylase (2 U/mL ) in phosphate buffer (100 mM, pH 6.8) and incubated at 37 °C for 10 min. Thereafter, 50 μL
(1 picture or pasted object on this page, not shown here) […]
of 1% starch, dissolved in the same buffer, was added to the mixture and the samples were incubated again at 37 °C. After 30 min, dinitrosalicylic acid (DNS) colour reagent (1 mL) was added. The (DNS) was prepared by adding 437mg of 3,5- dinitro salicylic acid in 20 mL distilled water to12 g of sodium potassium tartrate in 8 mL of 2 M NaOH, then added distilled water until the solution reach to 40 mL ). the samples were boiled for 10 min in water bath. For non-enzymatic reactions, the assays were performed with a blank containing all of the components except the enzyme.

Experiment [2] is described as follows: Radical scavenging by DPPH method. The settings on record: DPPH assay. The procedure:
The assay of 2,2-Diphenyl-1-picrylhydrazyl radical (DPPH) was performed according to the method at.
The antioxidant activity was examined for the hybrids (4–7) using the stable DPPH assay. The antioxidant results from different concentrations (0.16, 0.8, 4, 20, 40, 200 and 1000 µg/mL) were represented in Figure 5 as IC50 value (concentration of compound is essential for rising 50% of reducing power for H-donating or radical scavenging). The effect of the scavenging is rising in the trend 4 > 5 > 6 > STD > 7. […] After blocking the hydrazide group by aldehyde motifs in compounds 6 and 7, the activity was decreased. High scavenging activity may be due to the stabilization of the lone pair in the conjugated system by the presence of terminal ester or hydrazide.
A general note: The DPPH test is a chemical assay of radical scavenging.

Experiment [3] deals with alloxan-induced diabetic rat model. Briefly: Oral anti-hyperglycemic activity, blood glucose level in alloxan-induced diabetic rat model. Type of experiment: in vivo, Albino male Wistar rats. As to the method:
Albino male Wistar rats (150 ± 20 g) were obtained. (Supplementary Materials).
The animals were kept fasting overnight (12 h) before induction of diabetes. Diabetes was induced in rats as reported and (Supplementary Materials).
Blood samples were obtained from the tail vein of all rats, the blood glucose levels (BGLs) were measured and monitored in all treatment groups at days 0 (basal), 2, 4, 15 and 30 as reported.
Oral anti-hyperglycemic activity was evaluated for compounds 4–7 by an alloxan-induced diabetic rat model. […] The BGL was monitored for each tested compound at three different doses (50,100 and 250 mg/Kg) and for five experimental period durations (0, 2, 4, 15, 30 days). […]
The animals were kept fasting overnight (12 h) before induction of diabetes. […]

Experiment [4] shares this test system. Description: Serum lipid profile (CH, TG, HDL, LDL, VLDL) in alloxan-induced diabetic rats. Particulars: 50 mg/Kg; for Serum CH (cholesterol) level: all experimental times. The class given is in vivo, Albino male Wistar rats. The procedure:
The blood samples (0.5 mL) were withdrawn from each rat using the retro-orbital plexus and the other steps for biochemical analysis were adapted. (Supplementary Materials).
The serious side effect related to diabetes is hyperlipidemia. The insulin deficiency promotes adipocytes to generate fatty acid, hepatic phospholipids and cholesterol. Thus, the levels of cholesterol (CH), triglyceride (TG), high (HDL), low (LDL) and very low (VLDL) density lipoproteins, in serum for alloxan-loaded diabetes have been measured at 50 mg/Kg concentration (Figure 7). All lipid parameters for all tested compounds have (p < 0.05) compared to the diabetic control group (Figure 7).
Figure 7 The level of (A) CH (Cholesterol); (B) TG (Triglyceride); (C) HDL (High density lipoprotein); (D) LDL (Low density lipoprotein) and (E) VLDL (Very low density lipoprotein) in serum of hyperglycemic loaded rats. […] Data analyzed by one way ANOVA followed by LSD test and expressed as mean ± SEM from five observations. […]
glucose level of rats was determined using glucose strips. Rats with plasma glucose concentration N 300 mg/dl (Gadadare et al., 2015) were considered diabetic and included […]
The blood samples (0.5 ml) were withdrawn from the retro-orbital plexus of each rat under mild anesthesia using a glass capillary tube after fasting for 6 h. Blood samples were centrifuged at 3000 rpm for 15 min. The serum was kept at −80 °C until analyzed. Speciﬁc reagent kits were used to determine levels of serum triglyceride (TG), serum cholesterol (CH), serum low density lipoproteins (LDL), serum high density lipoproteins (HDL) for assessing the lipid proﬁle.
Data are expressed as mean ± S.E. Data analysis was done using one way analysis of variance (ANOVA) followed by least significant difference (LSD) test for multiple comparisons. Difference was considered significant when p is less than 0.05. SPSS (version 11) program was used to carry out

Chain of α-amylase enzyme (P04746 16-511): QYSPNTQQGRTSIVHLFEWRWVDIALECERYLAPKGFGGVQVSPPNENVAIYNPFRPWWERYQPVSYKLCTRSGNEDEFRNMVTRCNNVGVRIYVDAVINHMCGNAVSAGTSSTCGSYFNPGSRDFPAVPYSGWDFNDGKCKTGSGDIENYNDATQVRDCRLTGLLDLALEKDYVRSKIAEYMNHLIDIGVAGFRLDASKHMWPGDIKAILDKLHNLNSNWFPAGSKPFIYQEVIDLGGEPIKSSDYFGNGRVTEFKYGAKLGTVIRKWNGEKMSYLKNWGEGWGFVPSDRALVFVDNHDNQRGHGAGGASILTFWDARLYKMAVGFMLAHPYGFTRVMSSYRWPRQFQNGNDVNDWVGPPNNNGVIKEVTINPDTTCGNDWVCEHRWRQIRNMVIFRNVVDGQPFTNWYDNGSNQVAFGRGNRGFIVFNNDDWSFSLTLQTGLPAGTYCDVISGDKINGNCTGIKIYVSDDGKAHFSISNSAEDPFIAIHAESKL

For orientation: IC50 means the concentration at which inhibition is half-maximal. For the compound `COc1ccc(/C=N/NC(=O)CN2C(=O)S/C(=C/c3ccc4c(c3)OCO4)C2=O)cc1` [Compound 7], the IC50 in experiment [1] was 130 µM. Besides, the “Antioxidant (scavenging) activity compared to STD (ascorbic acid)” value in experiment [2] was “lower scavenging activity than STD”. Besides, the “Blood glucose level (BGL) reduction” value in experiment [3] (50 mg/Kg, 15th and 30th days) was “highest percentage in the BGL reduction”. For the same compound, the “Blood glucose level (BGL) compared to DC” value in experiment [3] (100 mg/Kg, 15th and 30th days) was “insignificant decrease in the BGL”; in experiment [3] (250 mg/Kg, 4th, 15th and 30th days), “reduced BGL significantly”. Moreover, the “Serum CH (cholesterol) level” value in experiment [4] is on record as “worst CH level from all compounds”.
For “5-(Benzo[d][1,3]dioxol-5-ylmethylene)-3-(2-(2,4-dioxo thiazolidin-3-yl) acetyl) thiazolidine-2,4-dione [Compound 6]”, the “Blood glucose level (BGL) compared to DC” value in experiment [3] (50 mg/Kg, 2nd and 4th days) was “suffered from controlling the BGL”; in experiment [3] (100 mg/Kg, all of the experiments) it was “increased the BGL rather than DC”. Moreover, the “Serum CH (cholesterol) level reduction” value in experiment [4] (2nd and 4th days) was “moderate reduction”; in experiment [4] (15th and 30th days), “best reduction of the CH level”. Further, the “Serum VLDL level” value in experiment [4] (15th and 30th days) was “lower than normal value”.
With `CCOC(=O)CN1C(=O)SC(=Cc2ccc3c(c2)OCO3)C1=O` [Compound 4, Ethyl-2-(5-(benzo[d][1,3]dioxol-5-ylmethylene)-2,4-dioxothiazolidin-3-yl)acetate], the “Blood glucose level (BGL) compared to DC” value is on record as “suffered from controlling the BGL” in experiment [3] (50 mg/Kg, 2nd, 4th and 15th days); “significance decrease in the BGL” in experiment [3] (100 mg/Kg, 15th and 30th days); “failed to control BGL” in experiment [3] (250 mg/Kg, all durations of the experiment). Also, in experiment [4] (0th and 15th days), the “Serum VLDL level, regulation to nearly normal value” is on record as “failed to do so”. Also, the “Serum TG (triglyceride) level compared to DC” value in experiment [4] (2nd day) is “failed to regulate the TG level lower than the DC level”. The “Serum VLDL level” value in experiment [4] (2nd, 14th and 30th days) is listed as “nearly normal value”. The “Serum CH (cholesterol) level” value in experiment [4] is given as “moderate regulation of the CH value”.
For `NNC(=O)CN1C(=O)SC(=Cc2ccc3c(c2)OCO3)C1=O` [Compound 5, 2-(5-(Benzo[d][1,3]dioxol-5-ylmethylene)-2,4-dioxothiazolidin-3-yl)acetohydrazide], the “Blood glucose level (BGL) compared to DC” value in experiment [3] (100 mg/Kg, 15th and 30th days) was “significance decrease in the BGL”. Also, the “Blood glucose level (BGL) regulation” value in experiment [3] (250 mg/Kg, 15th and 30th days) is given as “organized the BGL more than 6”. In addition, the “Serum CH (cholesterol) level reduction” value in experiment [4] (2nd day) is “moderate reduction value”. In experiment [4] (15th and 30th days), the “Serum CH (cholesterol) level reduction” value was “best reduction of the CH level” and the “Serum VLDL level” value is recorded as “lower than normal value”.

These data come from article PMC8838189, “Thiazolidinedione Derivatives: In Silico, In Vitro, In Vivo, Antioxidant and Anti-Diabetic Evaluation” (Molecules, 2022).
